{"source": "patent US4665086A", "about": "“Method for minimizing disturbances in circadian rhythms of bodily performance and function” (priority 1983, dated 1987)", "origin": "cited, not measured here", "key": {"[1]": {"tested_on": "endogenous melatonin secretion", "settings": "beta blocker; cited from earlier work"}, "laboratory animals": {"tested_on": "laboratory animals", "settings": "chronic administration, cited from earlier work; for effect on rhythm (splitting): monoamine oxidase inhibitors"}, "melatonin synthesis": {"tested_on": "melatonin synthesis", "settings": "rats, exogenous administration; cited from earlier work"}}}
{"smiles": "CC(C)NC[C@H](O)COc1cccc2ccccc12", "note": "(racemic) [PROPANOLOL]", "values": [{"measurement": "effect on endogenous melatonin secretion", "setting": "[1]", "result": "can inhibit endogenous melatonin secretion"}]}
{"smiles": "CN(C)CCCN1c2ccccc2CCc2ccccc21", "note": "[imipramine]", "values": [{"measurement": "effect on rhythm (splitting)", "setting": "laboratory animals", "result": "split the rhythm"}, {"measurement": "effect on unentrained, free-running period", "setting": "laboratory animals", "result": "lengthens the unentrained, free-running period"}]}
{"smiles": "N[C@@H](Cc1ccc(O)c(O)c1)C(=O)O", "note": "[L-dopa]", "values": [{"measurement": "effect on melatonin synthesis", "setting": "melatonin synthesis", "result": "stimulates melatonin synthesis"}]}
{"smiles": "[Li]", "note": "[lithium]", "values": [{"measurement": "effect on unentrained, free-running period", "setting": "laboratory animals", "result": "lengthens the unentrained, free-running period"}]}
{"smiles": "C#CCN(C)CCCOc1ccc(Cl)cc1Cl", "note": "[clorgyline]", "values": [{"measurement": "effect on rhythm (splitting)", "setting": "laboratory animals", "result": "split the rhythm"}, {"measurement": "effect on unentrained, free-running period", "setting": "laboratory animals", "result": "lengthens the unentrained, free-running period"}]}
{"smiles": "[2H]O[2H]", "note": "[heavy water (D2 O)]", "values": [{"measurement": "effect on unentrained, free-running period", "setting": "laboratory animals", "result": "lengthens the unentrained, free-running period"}]}
